In ChEMBL document CHEMBL5113481, “Design, synthesis and biological evaluation of quinoline-2-carbonitrile-based hydroxamic acids as dual tubulin polymerization and histone deacetylases inhibitors” (Eur J Med Chem, 2022):
Converted amounts (≈) assume the structure as drawn. The source made the active and inactive calls. No cut-off for these calls is given here.

What was measured:
Histone deacetylase 8 = biological target: T1, Histone deacetylase 8 (Homo sapiens, UniProt Q9BY41); test: Inhibition of HDAC8 (unknown origin) measured by fluorometry assay
T1 sequence (Q9BY41 whole entry): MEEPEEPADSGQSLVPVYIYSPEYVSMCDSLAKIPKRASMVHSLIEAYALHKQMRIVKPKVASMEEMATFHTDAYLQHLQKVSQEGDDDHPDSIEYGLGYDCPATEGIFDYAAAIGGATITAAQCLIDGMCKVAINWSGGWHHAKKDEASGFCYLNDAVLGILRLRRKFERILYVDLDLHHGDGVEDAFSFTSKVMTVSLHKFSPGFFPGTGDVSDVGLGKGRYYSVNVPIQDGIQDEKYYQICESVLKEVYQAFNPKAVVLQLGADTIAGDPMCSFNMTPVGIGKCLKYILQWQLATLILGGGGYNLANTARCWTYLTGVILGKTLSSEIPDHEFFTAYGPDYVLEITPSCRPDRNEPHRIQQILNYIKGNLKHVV

[1] = Antitumor activity against mouse MCA-205 cells allografted in female C57BL/6 mouse assessed as decrease in tumor growth at 0.25 to 0.5 mg/kg, IT(Intratumoral); format: functional; set-up: scale not given: the % may be the effect or the level left; conditions: dose lower […], dose upper 0.5 mg/kg
HT-29 = test: Cell cycle arrest in human HT-29 cells assessed as accumulation of cells in G2/M phase at 5 nM measured after 24 hrs by PI staining based flow cytometry method; format: functional
Tubulin (Homo sapiens) [2] = biological target: T2, Tubulin (Homo sapiens) (UniProt P68371+Q9H4B7+P0DPH7+P68366+Q13509+Q71U36+P04350+Q3ZCM7+P07437+P68363+Q9BQE3+Q6PEY2+Q13885+Q9BVA1+Q9BUF5); test: Inhibition of tubulin polymerization (unknown origin) at 10 uM in presence of GTP; format: protein-complex assay
[3] = Metabolic stability in rat liver microsomes assessed as intrinsic clearance per mg protein measured upto 6 hrs in presence of NADPH generating system by HPLC-MS/MS analysis; format: ADME, Microsome; conditions: read-out: CLH
[4] = biological target: T3, Histone deacetylase 8 (Homo sapiens) (UniProt Q9BY41); test: Inhibition of HDAC8 in human HT-29 cells assessed as increase in SMC3 acetylation at 0.5 to 100 nM measured after 30 mins by western blot analysis; format: cell-based; conditions: dose 0.5-100 nM
T3 sequence (whole entry): T1 sequence (Q9BY41 whole entry)

[5] = Metabolic stability in human liver microsomes assessed as half-life measured upto 6 hrs in presence of NADPH generating system by HPLC-MS/MS analysis; format: ADME, Microsome
MCF7 = test: Antiproliferative activity against human MCF7 cells after 72 hrs by CellTiter Glo assay; format: functional, cell-based; conditions: MCF7, 72 h
Tubulin (Homo sapiens) [6] = biological target: T2, Tubulin (Homo sapiens); test: Inhibition of tubulin polymerization in human MDA-MB-231 cells assessed as microtubule network polymerization at 250 nM after 30 mins by immunofluorescence analysis; format: cell-based
[7] = Metabolic stability in human liver microsomes assessed as intrinsic clearance per mg protein measured upto 6 hrs in presence of NADPH generating system by HPLC-MS/MS analysis; format: ADME, Microsome; conditions: read-out: CLH
[8] = Antiproliferative activity against mouse MCA-205 cells after 72 hrs by CellTiter Glo assay; format: functional, cell-based; conditions: MCA-205, 72 h
NCI-N87 = test: Antiproliferative activity against human NCI-N87 cells after 72 hrs by CellTiter Glo assay; format: functional, cell-based; conditions: NCI-N87, 72 h
[9] = Solubility of compound in water; format: physicochemical
K562 = test: Antiproliferative activity against imatinib-resistant human K562 cells over expressing MDR1 after 72 hrs by CellTiter Glo assay; format: functional, cell-based; conditions: K562, 72 h

## COc1ccc(N(C)c2cc(C#N)nc3ccccc23)cc1/C=C/C(=O)NO
Histone deacetylase 8
  IC50: 150 nM
[1]
  Activity: 70%
HT-29
  Activity: >95%
Tubulin (Homo sapiens) [2]
  inhibition: Active
[3]
  microsomal CLint: 1.75 µL/min/mg
[4]
  inhibition: Active
[5]
  half-life: 32 h
MCF7
  IC50: 0.78 nM
Tubulin (Homo sapiens) [6]
  inhibition: Active
[7]
  microsomal CLint: 0.36 µL/min/mg
[8]
  IC50: 2.78 nM
NCI-N87
  IC50: 0.1 nM
[9]
  solubility: 68.7 µg/mL (≈ 183 µM)
K562
  IC50: 0.56 nM
